# Like-named read-outs stand apart in the source and are kept apart here. No end group written: not given here.
# What was measured:
# [1] = tested on: porcine red blood cells (RBCs); assay: Hemolysis assay; format: cell-based, pig; settings: 1% porcine RBCs in RPMI, 37°C 30–45 min, absorbance 415 nm, tested 1–128 μg/mL, 2% Triton-X100 = 100%; three independent experiments in duplicate, one maximum and one minimum data point dropped
# Procedure: Hemolysis experiments were performed to evaluate the toxicity of the selected peptides to RBCs. Whole blood from healthy donor pigs was purchased from Lampire Biological Laboratories (Pipersville, PA, USA), and RBCs were washed and isolated by centrifugation using Roswell Park Memorial Institute (RPMI) medium (Life Technologies, Grand Island, NY, USA). Peptides were suspended and serially diluted from 1280 to 10 μg/mL using RPMI medium in a 96‐well polypropylene microtiter plate, and then combined with 100 μL of the 1% RBC solution, providing a final AMP testing range of 128 to 1 μg/mL. Plates were centrifuged after an incubation at 37°C for 30–45 min, and 1/2 volume from each supernatant was transferred to a new 96‐well plate. The absorbance of the wells was measured at 415 nm utilizing the Cytation 5 Cell Imaging Multimode Reader (BioTek, CA, USA), and the peptide concentration that lysed 50% of the RBCs (HC50) was used to determine the hemolytic activity. Absorbance readings from wells containing RBCs treated with 11 μL of a 2% Triton‐X100 solution or RPMI medium (AMP solvent‐only) were used to define 100% and 0% hemolysis, respectively. We note that all centrifugation steps were performed at 500× g for 5 min in an Allegra‐6R centrifuge (Beckman Coulter, CA, USA).
# [2] = tested on: Escherichia coli ATCC 25922; format: cell-based
# Procedure: (§1) To measure the antimicrobial activity of our selected putative AMPs in vitro, broth microdilution assays were conducted to determine the minimum inhibitory and minimum bactericidal concentrations (MICs and MBCs, respectively), as outlined by the Clinical and Laboratory Standards Institute [CLSI] ([2015]). The adaptations for testing cationic AMPs, as described previously (Wiegand et al., [2008]), were incorporated. The selected peptides were tested against laboratory isolates of E. coli 25922 and S. aureus 29213, which were purchased from the American Type Culture Collection (ATCC; Manassas, VA, USA). Bacteria from frozen stocks were streaked onto nonselective Columbia blood agar with 5% sheep blood (Oxoid) and incubated for 18–24 h at 37°C. To ensure the uniform colony health before the assay, 2–4 colonies were streaked onto a new agar plate and incubated for another 18–24 h at 37°C on the next day. To create a standardized bacterial inoculum, isolated colonies were suspended in Mueller‐Hinton Broth (MHB; Sigma‐Aldrich, St. Louis, MO, USA). The suspension was adjusted to an optical density of 0.08–0.1 at 600 nm, which corresponds to a 0.5 McFarland standard of approximately 1–2 × 10^8 colony‐forming units (CFU)/mL. The inoculum was then diluted 1:250, resulting in a final concentration of 5 ± 3 × 10^5 CFU/mL. The target bacterial density was confirmed by measuring the total viability counts from the final tested inoculum.
# (§2) The selected putative AMPs were purchased from and synthesized by GenScript (Piscataway, NJ, USA) in lyophilized format. The peptides were stored at −20°C and were suspended in sterile ultrapure water prior to testing. A two‐fold serial dilution of 1280 to 2.5 μg/mL was prepared in sterile 96‐well polypropylene microtiter plates (Greiner Bio‐One #650261, Kremsmünster, Austria). Then, 100 μL of the standardized bacterial inoculum was added to each well, resulting in a final AMP testing range of 128 to 0.25 μg/mL. The MIC values were determined as the lowest peptide concentration in which no visible bacterial growth was observed after a 20–24 h incubation at 37°C. To determine the MBC values, well contents of the MIC and the two adjacent wells containing the two‐ and four‐fold higher peptide concentrations were plated onto nonselective nutrient agar. The concentration in which 99.9% of the inoculum was killed after an incubation for 24 h at 37°C was reported as the MBC.
# (§3) In our tests, we used Ranatuerin‐4—a known AMP from the American bullfrog (Goraya et al., [1998]), and an in‐house peptide [TKPKG]3 (OT15) as the positive and negative control peptides, respectively. We note that OT15 was truncated and derived from a negative control peptide [TKPKG]4 (OT20), not antimicrobial but sharing similar characteristics to AMPs, used in previous studies (Horváti et al., [2017]).
# [3] = tested on: Staphylococcus aureus ATCC 29213; format: cell-based
# Procedure: as §1, §2, §3
# [4] = broth microdilution (CLSI, adapted for cationic AMPs), MHB, 5 ± 3 × 10^5 CFU/mL, 20–24 h at 37°C, tested 0.25–128 μg/mL, range from three independent experiments in duplicate, one maximum and one minimum data point dropped
# [5] = concentration killing 99.9% of inoculum, plated on nutrient agar, 24 h at 37°C, range from three independent experiments in duplicate, one maximum and one minimum data point dropped
Sequence,"HC50 (concentration that lyses 50% of RBCs), porcine RBCs [1]","MIC, E. coli ATCC 25922 ([2]; ATCC 25922)","MBC, E. coli ATCC 25922 ([2]; ATCC 25922, 24 h)","MIC, S. aureus ATCC 29213 ([3]; ATCC 29213)","MBC, S. aureus ATCC 29213 ([3]; ATCC 29213, 24 h)","MIC, E. coli ATCC 25922 [2, 4]","MBC, E. coli ATCC 25922 [2, 5]","MIC, S. aureus ATCC 29213 [3, 4]","MBC, S. aureus ATCC 29213 [3, 5]"
ILDKVRLWLARIRLNLLKR [PlVi1],> 128 µg/mL,–,–,–,–,–,–,–,–
"RVKRFWPLVPVAINTVAAGINLYKAIRRK [Chicken CATH-3, reference compound]",–,2 to 4 µg/mL,2 to 4 µg/mL,2 µg/mL,2 to 4 µg/mL,–,–,–,–
SYWWWGFHKNVIDRREAFYADLAEKKKAEN [CaGl1],–,> 128 µg/mL,> 128 µg/mL,> 128 µg/mL,> 128 µg/mL,–,–,–,–
"VMRSAGSRSSKR [OrSa6, putative AMP mined from UniProt Q5VRI5, Oryza sativa subsp. japonica]",–,–,–,–,–,> 128 µg/mL,> 128 µg/mL,> 128 µg/mL,> 128 µg/mL
VWEFFEAGAGLRASNASKKIYGVAKRFRR [DiVi1],–,> 128 µg/mL,> 128 µg/mL,> 128 µg/mL,> 128 µg/mL,–,–,–,–
WIIQCWWRQVLEKLLAKRRR [HoSa4],–,–,–,64 to 128 µg/mL,–,32 µg/mL,32 µg/mL,64 to 128 µg/mL,–
WLLVLQRGHRLASIKHVCQLSERKR [DaRe1],–,32 to 64 µg/mL,32 to 64 µg/mL,> 128 µg/mL,> 128 µg/mL,–,–,–,–
"YVSPVAIVKGLNIPL [Ovipin, reference compound]",–,> 128 µg/mL,–,> 128 µg/mL,–,–,–,–,–

# — article PMC11917140, “Mining the UniProtKB/Swiss‐Prot database for antimicrobial peptides” (Protein Science : A Publication of the Protein Society, 2025)
